Experimental data as given in patent US20200113852A1, “METHODS OF PATIENT SELECTION AND TREATING TRXR- OR PRDX-OVEREXPRESSED CANCERS” (TRIACT THERAPEUTICS, INC., priority 2017, published 2020).
Where two headings read alike, the source gives them in different places.

How the values were obtained:
[1] = test system: TrxR in MDA-MB-231 cells; assay: Endogenous TrxR activity (DTNB reduction assay); assay type: cell-based, human; conditions: GSH-depleted MDA-MB-231; iniparib 100 μM, Auranofin 1 μM, up to 4 h
Source text: Initial velocities were derived from linear regression analyses and then plotted in double reciprocal plots to obtain the half time of TrxR inhibition using an one phase exponential decay analysis (Prism, GraphPad software).

[2] = test system: MDA-MB-231 cells; assay: ROS production (CellROXOrange); assay type: cell-based, human; conditions: GSH-depleted MDA-MB-231, 100 μM, 4 h
[3] = test system: HCT116 cells; assay: Cytotoxicity assay (WST-1 cell viability); assay type: cell-based, human; conditions: for cytotoxicity: HCT116 without GSH depletion; for IC50: Homo sapiens
Procedure: Cell viability following drug treatments was assessed using WST-1 cell proliferation assay (Roche) Briefly, cells were plated into 96-well plates with 8,000 (HCT116) or 20,000 (MDA-MB-453) cells per well and allowed to attach overnight. Cells were then preincubated for 5 h in the presence or absence of 1 mM BSO. […] After 3 h of incubation at 37° C., the amount of formazan dye was quantified by measuring the optical density at 450 nm with a scanning multiwell spectrophotometer (PerkinElmer).
Cell viability following drug treatments was assessed using WST-1 cell proliferation assay (Roche). Briefly, cells were plated into 96-well plates with 8,000 (HCT116) or 20,000 (MDA-MB-453) cells per well and allowed to attach overnight. Cells were then preincubated for 5 h in the presence or absence of 1 mM BSO. […] After 3 h of incubation at 37° C., the amount of formazan dye was quantified by measuring the optical density at 450 nm with a scanning multiwell spectrophotometer (PerkinElmer).

[4] = test system: metastatic triple negative breast cancer; assay: Phase 2 and Phase 3 mTNBC trials, 15-gene expression signature analysis (PFS, OS, ORR); assay type: in vivo, human
Source text: Formalin-fixed, paraffin-embedded (FFPE) archival samples from biopsy or surgery at original diagnosis of breast cancer were profiled on the exon-based Affymetrix Hugene1.0ST microarrays using an RNA extraction protocol adapted to the short fragment lengths resulting from RNA degradation in FFPE samples. It was considered that a corpus of n=210 patients for whom clinical outcome data was available in the form of PFS time and associated censoring statuses.
The raw gene expression data from profiling of an initial n=240 FFPE preserved samples, in the form of individual Affymetrix CEL files, was processed using […] estimation. Quality control based on average array brightness excluded 30 outlier scans, and the n=210 remaining profiles were then normalized to each other using quantile normalization. Affymetrix probesets were mapped to genes, in a manner where multiple probesets mapping into the same gene were resolved by assigning the highest intensity to the corresponding gene, this procedure reducing the set of 33,297 probe sets to 20,756 mapped genes. The data was then log 2-transformed, and standardized by mean-subtraction and division by the standard deviation across all 210 samples, for each gene separately. Finally, the data matrix was subsetted to the intersection of the oxidative response set of 102 genes with the set of genes represented on the Hugene1.0ST arrays, resulting in profiles for p=82 genes across all n=210 samples.
A multivariate Cox model using supervised principal components was used to model progression free survival times regressed on gene expression data. […]
In Eq.(1) the variables: x1, l=1, . . . , K, denote projections onto the first K principal components of the data matrix of gene expression vectors, after preliminary reduction to a subset of mtop genes out of the original set of 82, where mtop is a variable parameter, 1≤mtop≤82. For a given mtop, the subset is determined by univariate feature selection (generating a Cox model for each gene independently and selecting the mtop genes with the smallest interaction-term P-values). […]

[5] = test system: MDA-MB-231 cells; assay: Fluorescence microscopy, subcellular localization of iniparib-biotin targets; assay type: cell-based, human; conditions: MDA-MB-231, as early as 30 min following compound addition
Procedure: MDA-MB-231 cells were platted on polylysine D coated thin glass bottom microscope chambers (Ibidi). […] For subcellular localization experiments mitochondria were stained with 100 nM Mitotracker Red CMX (Molecular probes) added for 10 min. This stain was performed before fixation (Paraformaldehyde 3.7% in PBS pH 7.4). Biotin was developed, after Triton X100 (0.3% in PBS, 15 min) permeabilization and saturation (1% BSA+1% gelatin in PBS: saturation buffer), with Alexa-488 streptavidin (Molecular Probes) conjugate (1 μg/ml in saturation buffer). Nuclei were stained with Hoechst (Molecular Probes) and samples mounted in antifading solution (Ibidi).
Cells were imaged with a PLAN NeoFluar 40× (NA 1.3) or 100×, (NA 1.46) oil objectives on a LSM510 (Zeiss) confocal microscope. Laser lines, filters and dichroic mirrors were selected for maximal separation of the green (Ex./Em. 488/530 nm) and the red fluorescence (Ex./Em. 543/LP 585 nm). Nuclei were observed (Ex./Em. 405/460 nm). For co-localization stacks of images separated by 400 nm along z-axis were acquired. Post-capture processing was done using LSM510 software, stacks of confocal images were deconvoluted using the ImageJ software.

Compound	TrxR reductase activity [1]	ROS [2]	cytotoxicity ([3]; after 24 h, concentrations up to 100 μM)	cytotoxicity ([3]; up to 100 μM of Iniparib)	IC50 ([3]; HCT-116, 24 h, read-out: IC50 (cytotoxicity), HCT116 cells not depleted of GSH, transitory or 24 h exposure)	IC50 ([3]; HCT-116, read-out: IC50 (cytotoxicity), HCT116, GSH depletion (Example 2))	IC50 ([3]; HCT-116, read-out: IC50 (cytotoxicity), HCT116 after GSH depletion with BSO (Example 1))	median progression-free survival ([4]; biomarker-selected (sensitive) population n=53)	objective response rate (responders) ([4]; resistant group)	objective response rate (responders) ([4]; sensitive group n=53)	protein modification, subcellular localization [5]
NC(=O)c1ccc(I)c([N+](=O)[O-])c1 [Iniparib, 4-iodo-3-nitrobenzamide]	inhibition of the TrxR reductase activity	accumulation of ROS	marginal cytotoxicity	no cytotoxicity was detected	> 100 µM	8.2 µM	8.4 ± 0.5 µM	5.9 months	34%	48%	–
O=C(CCCC[C@@H]1SC[C@@H]2NC(=O)N[C@@H]21)NCCNC(=O)c1ccc(I)c([N+](=O)[O-])c1 [Iniparib-biotin, 4-iodo-3-nitro-N-(2-(5-((3 aS,4S,6aR)-2-oxohexahydro-1H-thieno[3,4-d]imidazol-4-yl)pentanamido)ethyl)benzamide]	–	–	–	–	–	–	–	–	–	–	covalently modified cytosolic and mitochondrial proteins were detected
